Source: the supplement of paper PMC10307832

Key:
Test in all cases: relative viability (nuclei count vs DMSO), 5 days (fraction); higher = more cells survive
[1] = compound: C(C(=O)C(=O)O)Br [Bromopyruvate] + CC(=O)c1c(C)c2cnc(Nc3ccc(N4CCNCC4)cn3)nc2n(C2CCCC2)c1=O [Palbociclib] (partner 0.5 µM)
Summary of the method: (§1)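 Lung cancer cell lines in 1536-well plates were dosed by pin tool the day after seeding, either with one drug alone or with a fixed anchor-drug dose plus five library-drug doses (not always all listed) in √10 steps. After 5 days, cells were fixed and their nuclei stained in one step (final 0.05% Triton X-100, 1% formaldehyde, 1 ug/ml Hoechst), then counted on 4× images. Relative viability is the nuclei count in treated wells divided by that in vehicle wells. Values are medians of duplicate plates.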

Bicalutamide + Foretinib = compound: CC(O)(CS(=O)(=O)c1ccc(F)cc1)C(=O)Nc1ccc(C#N)c(C(F)(F)F)c1 [Bicalutamide] + COc1cc2c(Oc3ccc(NC(=O)C4(C(=O)Nc5ccc(F)cc5)CC4)cc3F)ccnc2cc1OCCCN1CCOCC1 [Foretinib] (partner 0.25 µM)
Summary of the method: as §1

Bicalutamide + Dasatinib = compound: CC(O)(CS(=O)(=O)c1ccc(F)cc1)C(=O)Nc1ccc(C#N)c(C(F)(F)F)c1 [Bicalutamide] + Cc1nc(Nc2ncc(C(=O)Nc3c(C)cccc3Cl)s2)cc(N2CCN(CCO)CC2)n1 [Dasatinib] (partner 0.075 µM)
Summary of the method: as §1

[2] = compound: CC(O)(CS(=O)(=O)c1ccc(F)cc1)C(=O)Nc1ccc(C#N)c(C(F)(F)F)c1 [Bicalutamide] + Nc1nc2[nH]cc(CCc3ccc(C(=O)N[C@@H](CCC(=O)O)C(=O)O)cc3)c2c(=O)[nH]1 [Pemetrexed] (partner 0.2 µM)
Summary of the method: as §1

Which relative viability ([1]; first compound 1 µM) does the source give for UMC-11 here?
The relative viability was 0.343.

And the relative viability ([1]; first compound 3.162 µM)?
The relative viability was 0.353.

And the relative viability ([1]; first compound 10 µM)?
Its relative viability is 0.324.

What about the relative viability ([1]; first compound 31.62 µM) of the same cell line?
The relative viability was 0.367.

What about the relative viability ([1]; first compound 100 µM) of the same cell line?
Its relative viability is 0.356.

What about the relative viability (Bicalutamide + Foretinib; first compound 0.08 µM) of the same cell line?
The relative viability was 1.11.

What about the relative viability (Bicalutamide + Foretinib; first compound 0.253 µM) of the same cell line?
Its relative viability is 0.966.

What about the relative viability (Bicalutamide + Foretinib; first compound 0.8 µM) of the same cell line?
Its relative viability is 1.08.

And the relative viability (Bicalutamide + Foretinib; first compound 2.53 µM)?
The relative viability was 1.05.

And the relative viability (Bicalutamide + Dasatinib; first compound 0.08 µM)?
Its relative viability is 0.523.

What about the relative viability (Bicalutamide + Dasatinib; first compound 0.253 µM) of the same cell line?
The relative viability was 0.399.

And the relative viability (Bicalutamide + Dasatinib; first compound 0.8 µM)?
Its relative viability is 0.576.

And the relative viability (Bicalutamide + Dasatinib; first compound 2.53 µM)?
Its relative viability is 0.431.

And the relative viability ([2]; first compound 0.08 µM)?
Its relative viability is 0.83.

What about the relative viability ([2]; first compound 0.253 µM) of the same cell line?
Its relative viability is 0.732.

And the relative viability ([2]; first compound 0.8 µM)?
The relative viability was 0.829.

And the relative viability ([2]; first compound 2.53 µM)?
The relative viability was 0.756.
